Measurements: US20090143392A1, “Methods of Treating Obesity and Metabolic Disorders” (ELBION GMBH, priority 2007, published 2009)

Columns and labels:
MK-801-induced psychosis = assay: MK-801-induced psychosis: hyperactivity and stereotyped sniffing; type: in vivo; conditions: p.o.; female Wistar rats; MK-801 0.1 mg/kg i.p. 10 min before test; compound 30 min prior; recorded 1 h
Experimental: Female Wistar rats (Crl: (WI) BR, Charles River, Sulzfeld, Germany) weighing 150 to 180 g were used for the MK-801-induced psychosis. Animals were housed under standard conditions in groups of five on a 12 h light/dark cycle (light on at 0600 h) with ad libitum access to food (Pellets, ssniff M/R 15, Spezialdiät GmbH, Soest/Westfalen) and water.
MK-801 (dizocilpine, MW 337.37) was obtained by Tocris, distributed by Biotrend Chemikalien GmbH, Köln, Germany.
Hydroxyethylcellulose was solved in distilled water.
MK-801 was solved in saline so that an administration volume of 0.5 ml/100 g was reached. The suspensions and solution were placed on a magnetic stirrer before and during dosing procedures.
The behaviour induced by the NMDA antagonist MK-801 is generally accepted as a rat model of psychosis. MK-801 induces stereotyped sniffing, hyperactivity and ataxia in rats after intraperitoneal administration.
Locomotor activity of the rats was recorded by the MotiTest Apparatus (TSE, Bad Homburg, Germany). The test area consisted of a squared arena (45×45 cm) with protective plexiglass walls (20 cm of height) where rats could freely move. Horizontal movements were recorded by 32 infrared photocells arranged along the bottom of each wall of the arena. The activity [sec] was measured by the computer program “ActiMot” (TSE, Bad Homburg, Germany).
Stereotyped sniffing was scored by the experimenter every five minutes for one hour (12 intervals) according to the method described by Andine et al. (1999). The scores of the 12 intervals were summed up at the end of the recording time.
The day of experiment the female rats were placed in the laboratory and received the test compound or vehicle at the appropriate time prior to test. MK-801 0.1 mg/kg was intraperitoneally administered 10 minutes prior to test.
At the beginning of the test the rats were placed in the centre of the squared arena of the MotiTest apparatus. Behaviour of the rats was recorded for one hour. After each run animals were removed and the boxes thoroughly cleaned and dried.
Results were analysed by one way analysis of variance (ANOVA). Tukey test was used for individual comparison. P<0.05 was regarded as significant.

PDE10 from pig striatum = target: T1, PDE10 from pig striatum (Sus scrofa, UniProt A0A287B941); assay: Inhibition of PDE10 from pig striatum; type: biochemical; conditions: 0.1 μM [3H]-cAMP, 37° C., 30 minutes
T1 construct: "Striatum from male hybrid pigs (150 kg)"
Experimental: Phosphodiesterase isoenzyme 10 (PDE10) activity was determined in preparations of human recombinant PDE10A and PDE10 from pig striatum, respectively.
Striatum from male hybrid pigs (150 kg) were collected and frozen at −70° C.
At the day of preparation 0.5 g striatum was homogenised in 10 ml 50 mM Tris/Mg-buffer at 4° C. and centrifuged for one hour at 100000 g.
(§1) Nonspecific activity was tested without the enzyme. […] For determination of IC50 values the Hill-plot, 2-parameter-model, was used.
(§2) Phosphodiesterase isoenzyme 10 (PDE10) activity was determined in preparations of rat, pig and guinea pig striatum respectively. Striatum from male Wistar rats (180-200 g), male hybrid pigs (150 kg) and male guinea pigs (CRL (HA), 500 g) respectively were collected and frozen at −70° C.
(§3) For the enzymatic testing of PDE10 activity 0.5 g of the isolated and frozen striatum was homogenised in 10 ml 50 mM Tris/Mg-buffer at 4° C. and centrifuged for one hour at 100000 g.

[1] = target: PDE10 from guinea pig striatum (Cavia porcellus, UniProt A0A286XN47); assay: Inhibition of PDE10 from guinea pig striatum; type: biochemical; conditions: 0.1 μM [3H]-cAMP, 37° C., 30 minutes
Experimental: as §2, §3, §1

PDE10 from rat striatum = target: T2, PDE10 from rat striatum (Rattus norvegicus, UniProt Q9QYJ6); assay: Inhibition of PDE10 from rat striatum; type: biochemical; conditions: 0.1 μM [3H]-cAMP, 37° C., 30 minutes
T2 construct: 0.5 g of the isolated and frozen striatum was homogenised; from tissue; host or cells: rat striatum, ion-exchange FPLC fractions with PDE10 activity
T2 sequence (Q9QYJ6 1-794): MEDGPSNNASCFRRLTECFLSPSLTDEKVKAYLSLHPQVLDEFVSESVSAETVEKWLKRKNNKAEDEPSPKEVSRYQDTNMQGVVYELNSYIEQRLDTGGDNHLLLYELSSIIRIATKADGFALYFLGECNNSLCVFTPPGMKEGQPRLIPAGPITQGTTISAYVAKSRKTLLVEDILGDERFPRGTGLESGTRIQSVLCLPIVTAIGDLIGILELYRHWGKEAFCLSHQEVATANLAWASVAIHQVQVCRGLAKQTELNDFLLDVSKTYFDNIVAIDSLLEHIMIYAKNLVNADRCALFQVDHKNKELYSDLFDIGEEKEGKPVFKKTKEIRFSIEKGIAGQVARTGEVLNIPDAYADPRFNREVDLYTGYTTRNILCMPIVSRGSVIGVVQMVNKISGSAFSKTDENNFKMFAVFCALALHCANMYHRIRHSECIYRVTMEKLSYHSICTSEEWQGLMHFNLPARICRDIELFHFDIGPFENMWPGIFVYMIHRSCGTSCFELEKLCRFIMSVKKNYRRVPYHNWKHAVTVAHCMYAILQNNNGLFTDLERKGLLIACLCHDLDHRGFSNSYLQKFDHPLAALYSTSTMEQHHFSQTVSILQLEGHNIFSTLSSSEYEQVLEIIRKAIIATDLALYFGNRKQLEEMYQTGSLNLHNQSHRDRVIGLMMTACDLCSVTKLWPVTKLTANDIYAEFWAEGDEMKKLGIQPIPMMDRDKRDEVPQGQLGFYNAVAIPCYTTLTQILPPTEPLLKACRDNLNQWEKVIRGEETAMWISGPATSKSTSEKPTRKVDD
Experimental: as §2, §3, §1

[2] = test system: dopamine concentration in rat brain; conditions: cited from earlier work
[3] = test system: haloperidol-induced catalepsy; conditions: rats; cited from earlier work
[4] = test system: apomorphine-induced stereotypies; conditions: rats; cited from earlier work

Sequence of PDE10 from guinea pig striatum (A0A286XN47 1-773): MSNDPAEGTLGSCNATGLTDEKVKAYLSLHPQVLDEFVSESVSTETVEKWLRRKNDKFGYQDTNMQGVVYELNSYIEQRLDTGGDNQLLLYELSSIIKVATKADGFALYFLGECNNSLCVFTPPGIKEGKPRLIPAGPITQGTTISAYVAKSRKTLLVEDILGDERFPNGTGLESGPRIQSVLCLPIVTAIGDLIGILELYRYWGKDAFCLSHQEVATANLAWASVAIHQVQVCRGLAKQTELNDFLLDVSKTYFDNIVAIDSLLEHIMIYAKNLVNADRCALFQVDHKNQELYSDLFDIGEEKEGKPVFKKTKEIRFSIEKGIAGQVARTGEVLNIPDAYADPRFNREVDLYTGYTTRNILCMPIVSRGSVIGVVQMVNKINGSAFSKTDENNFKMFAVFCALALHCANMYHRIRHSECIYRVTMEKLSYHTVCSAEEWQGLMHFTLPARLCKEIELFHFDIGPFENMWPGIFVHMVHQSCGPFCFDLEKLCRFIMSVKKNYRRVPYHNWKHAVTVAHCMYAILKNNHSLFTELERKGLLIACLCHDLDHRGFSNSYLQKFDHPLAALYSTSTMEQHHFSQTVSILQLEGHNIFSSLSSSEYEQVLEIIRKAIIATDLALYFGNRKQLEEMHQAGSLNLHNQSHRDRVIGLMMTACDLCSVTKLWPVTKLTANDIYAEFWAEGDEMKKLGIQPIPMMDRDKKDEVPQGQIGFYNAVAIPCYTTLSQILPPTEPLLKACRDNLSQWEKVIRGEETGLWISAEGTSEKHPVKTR

4-cyano-8-methoxy-3-methyl-1-ethyl-imidazo[1,5-a]pyrido[3,2-e]pyrazine [Example 30a]
dose that significantly reversed MK-801-induced hyperactivity (MK-801-induced psychosis): ≥ 10 mg/kg
dose that significantly reversed MK-801-induced stereotyped sniffing (MK-801-induced psychosis): ≥ 10 mg/kg
IC50 (PDE10 from pig striatum): 20 nM
IC50 [1]: 51 nM

8-methoxy-3-methyl-4-methylsulfonylamino-1-propyl-imidazo[1,5-a]pyrido[3,2-e]pyrazine [Example 69a]
IC50 (PDE10 from pig striatum): 5 nM
IC50 (PDE10 from rat striatum): 11 nM
IC50 [1]: 11 nM

8-methoxy-4-methoxycarbonylamino-3-methyl-1-propyl-imidazo[1,5-a]pyrido[3,2-e]pyrazine [Example 62a]
dose that significantly reversed MK-801-induced hyperactivity (MK-801-induced psychosis): 5 mg/kg
dose that significantly reversed MK-801-induced stereotyped sniffing (MK-801-induced psychosis): 5 mg/kg
IC50 (PDE10 from pig striatum): 6 nM
IC50 (PDE10 from rat striatum): 35 nM
IC50 [1]: 26 nM

COc1ccc(Cc2nccc3cc(OC)c(OC)cc23)cc1OC [Papaverine]
effect on dopamine concentration in rat brain [2]: reducing dopamine concentration in rat brain
effect on haloperidol-induced catalepsy [3]: increases haloperidol-induced catalepsy
effect on apomorphine-induced stereotypies [4]: reduces apomorphine-induced stereotypies
